In article PMC12275099, “VX-445 (elexacaftor) inhibits chloride secretion across human bronchial epithelial cells by directly blocking KCa3.1 channels” (PNAS Nexus, 2025):
“And” between values parts separate entries of the source, which are not always exact repeats. Equal values may be shown once. “Also recorded” adds a separate entry of the source.

Legend:
KCa3.1 [1] = target: T1, KCa3.1 (Homo sapiens, UniProt O15554); test: Whole-cell patch-clamp on HEK cells heterologously expressing KCa3.1; type: cell-based; settings: for effect on KCa3.1 current: 10 µM, data not shown
T1 construct: expressed in transfected cells
Method: (§1) Our Isc results are consistent with VX-445 inhibiting KCa3.1 in HBEs. To directly assess this possibility, we initially carried out whole-cell patch-clamp studies on undifferentiated HBEs. […] Upon application of 10 µM VX-445, a majority of this current was inhibited, averaging 87 ± 4% (n = 3, P < 0.005; Fig. 3B). A summary of the current–voltage (I–V) relationship—normalized to cell capacitance—is shown in Fig. 3C, which also includes the whole-cell I–V in the presence of Tram-34. […] To ensure isolation of KCa3.1 currents and to more fully characterize this VX-445-dependent inhibition of KCa3.1, we utilized HEK cells heterologously expressing KCa3.1 (HEK-KCa3.1). Initially, we confirmed our results from HBEs, using whole-cell recordings, as above. […] In seven experiments, this inhibition averaged 58 ± 7% (P < 0.005). […] It is well recognized that drugs are carried to their targets in the blood bound to albumin, which ranges from 3.4 to 5.4%. Thus, we determined whether VX-445 (10 µM) would inhibit KCa3.1 expressed in HEK cells in the presence of 3.4% albumin. In four experiments, VX-445 inhibited an average of 51 ± 17% of the whole-cell KCa3.1 current, which is not different from that observed in the absence of albumin. To confirm the direct effect of VX-445 on KCa3.1, we utilized the excised, inside-out patch-clamp technique. The patch was then exposed to DCEBIO (100 µM) to further activate the channels ([34–37])—analogous to our Isc studies in HBEs. […] In three experiments, VX-445 inhibited an average of 63 ± 6% of the KCa3.1 current. Based on these experiments, we determined the apparent inhibitory constant, Ki for VX-445. For these experiments, patches were excised into saturating Ca^2+ (3 µM) to ensure maximal KCa3.1 activation. These studies were carried out in the absence of DCEBIO to eliminate the possibility that the inhibition observed was due to competition for the DCEBIO-binding site.
(§2) HEK cells stably expressing KCa3.1 (IK1, SK4), KCa2.3 (SK3), and KCa2.2 (SK2) were generated and cultured as previously described by us ([37], [66–71]).
(§3) HEK cells expressing the channel of interest were plated onto poly-L-lysine-coated glass coverslips 1–2 days prior to patch-clamp analysis. Electrophysiological recordings in the excised, inside-out, and whole-cell patch-clamp configurations were performed as recently described ([14]). For excised patch-clamp recordings, the pipette solution contained (in mM): 140 K-gluconate, 5 KCl, 1 CaCl2, 1 MgCl2, and 10 HEPES. The pH was adjusted to 7.2 with KOH. The bath solution contained (in mM): 145 K-gluconate, 5 KCl, 1.3 MgCl2, 10 HEPES, and 1 EGTA. Sufficient CaCl2 was added to obtain the desired free Ca^2+ concentration at a pH of 7.2 (adjusted with KOH). When recording KCa3.1 channels, ATP (300 µM) was added to the bath to diminish channel rundown ([73]). All recordings were carried out at a voltage of −100 mV, referenced to the extracellular compartment, as is standard. The apparent Ki and Hill coefficient for each CFTR corrector on KCa3.1, KCa2.3, and KCa2.2 were determined during a continuous recording by step-wise addition of increasing concentrations of compound and fitting the resultant relative remaining current to a Hill equation (Prism v. 10.1.0). The zero current level was determined by the addition of a 0 Ca^2+ solution (zero-added Ca^2+ plus 1 mM EGTA) at the end of the experiment. In the case of KCa3.1, TRAM-34, a known inhibitor of KCa3.1 ([45]), was used to confirm expression of the channel. For whole-cell experiments, pipettes contained (in mM): 145 K-gluconate, 10 EGTA, 7.5 CaCl2, 2 MgCl2, 3 mM NaATP, and 10 HEPES. The bath solution contained (in mM): 140 K-gluconate, 5 KCl, 1.0 MgCl2, 10 HEPES, and 2 CaCl2. Current–voltage relationships were determined by stepping from a holding potential of −80 mV to +80 mV in 20 mV increments for 400 ms. […]

[2] = test system: BKCa (KCa1.1, KCNMA1) channels; set-up: method as in PMID 38954478; settings: primary HBEs and HEK cells heterologously expressing the channel; cited from earlier work
[3] = test system: primary WT CFTR-expressing HBEs; test: Ussing chamber Isc, forskolin-stimulated Cl- secretion; type: cell-based, human; settings: for effect on the bumetanide-insensitive current: applied after forskolin and bumetanide, VX-445 10 µM, acetazolamide 1 µM
Text: (§4) Primary human bronchial epithelial cells (HBEs) were collected from unused or discarded samples from the Center for Organ Recovery and Education via the University of Pittsburgh Pulmonary, Allergy, Critical Care, and Sleep Medicine Lung Biobank and Repository. All experimental procedures involving the use of HBEs were approved by the institutional review board (IRB STUDY19090084) and the Committee for Oversight of Research and Clinical Training Involving Decedents (CORID number 451) at the University of Pittsburgh. At all times, authors were blind to the identity of HBE donors. HBEs were cultured using the Vertex method ([72]). Studies were carried out on WT CFTR HBEs from 11 ([13]) donors and homozygous F508del/F508del CFTR HBEs from five ([5]) separate donors. HBEs were plated on Costar Transwell permeable supports ([…], 6.5 mm insert, polyester membrane, Corning) and grown at an air–liquid interface for 5+ weeks in HBE differentiation medium containing 2% Ultroser-G. Basolateral media were replaced three times per week. For whole-cell patch-clamp studies, HBEs were maintained in BronchiaLife airway media (LifeLine Cell Technology, LS-1047) and plated onto poly-L-lysine-coated coverslips (see below).
(§5) Costar Transwell inserts were mounted in a modified Ussing chamber (P2300, Physiologic Instruments) and the monolayers continuously short-circuited (VCC MC8, Physiologic Instruments) by forcing the transepithelial voltage to 0 mV. Short-circuit current (Isc) measurements were taken in symmetric solutions, containing (in mM): 120 NaCl, 25 NaHCO3, 3.3 KH2PO4, 0.8 K2HPO4, 1.2 CaCl2, 1.2 MgCl2, and 10 glucose. The pH of the solution is 7.4 when gassed with 95% O2–5% CO2 at 37°C. Compounds were added cumulatively following the establishment of a new stable current response. Amiloride was added to the apical membrane, while all other compounds were added to both membranes due to their lipophilic nature. In all experiments, 10 µM amiloride was used to inhibit sodium absorption. Percent inhibition was calculated as the change in Isc (ΔIsc) between the forskolin or DCEBIO stable current level and the Isc following addition of the compound being assessed divided by the ΔIsc between the stable forskolin- or DCEBIO-induced Isc and the Isc following bumetanide addition.

WT CFTR HBEs = test: Ussing chamber Isc, DCEBIO-induced Cl- secretion; type: cell-based, human
Text: as §4, §5

[4] = target: T2, endogenous KCa3.1 in WT CFTR-expressing HBEs (Homo sapiens, UniProt O15554); test: Whole-cell patch-clamp on undifferentiated HBEs; type: cell-based; settings: TRAM-34 subsequent to VX-445, Fig 3C single cells
T2 construct: endogenous in cells; host or cells: undifferentiated primary human bronchial epithelial cells (WT CFTR donors)
Method: as §1
Primary human bronchial epithelial cells (HBEs) were collected from unused or discarded samples from the Center for Organ Recovery and Education via the University of Pittsburgh Pulmonary, Allergy, Critical Care, and Sleep Medicine Lung Biobank and Repository. All experimental procedures involving the use of HBEs were approved by the institutional review board (IRB STUDY19090084) and the Committee for Oversight of Research and Clinical Training Involving Decedents (CORID number 451) at the University of Pittsburgh. At all times, authors were blind to the identity of HBE donors. HBEs were cultured using the Vertex method ([72]). Studies were carried out on WT CFTR HBEs from 11 ([13]) donors and homozygous F508del/F508del CFTR HBEs from five ([5]) separate donors. […]

KCa3.1 [5] = target: T1, KCa3.1; test: Excised inside-out patch-clamp on HEK-KCa3.1; type: biochemical; settings: TRAM-34 3 µM after DCEBIO and VX-445 10 µM
Method: as §1, §2, §3

## CC1(C)C[C@@H]2CCCNc3cccc(n3)S(=O)(=O)NC(=O)c3ccc(-n4ccc(OCCC5C6(CC6)C56CC6)n4)nc3N1C2 [VX-121, vanzacaftor]
KCa3.1 [1]; HEK293, VX-121 10 µM, three experiments, read-out: inhibition of whole-cell KCa3.1 current
  inhibition at 10 µM: 85 ± 8%
[2]
  effect on BKCa: act as direct potentiators

## CC(C)(C)c1cc(C(C)(C)C)c(NC(=O)c2c[nH]c3ccccc3c2=O)cc1O [VX-770, ivacaftor]
[2]
  effect on BKCa: had no effect

## C=C[C@@]1(C)CC(=O)[C@]2(O)[C@@]3(C)[C@@H](O)CCC(C)(C)[C@@H]3[C@H](O)[C@H](OC(C)=O)[C@@]2(C)O1 [forskolin]
[3]; Fig 1F, single filters
  Isc in the presence of forskolin: 31 and 30 and 24 and 28 and 26 and 34 and 27 and 32
[3]; Fig 2B, single filters
  Isc in the presence of forskolin: 17 and 18 and 23 and 24 and 19 and 21

## Clc1ccccc1C(c1ccccc1)(c1ccccc1)n1cccn1 [TRAM-34]
[3]; TRAM-34 5 µM, no VX-445
  effect on forskolin-stimulated Isc: inhibits a portion of the current
[3]; TRAM-34 after VX-445 10 µM
  effect on forskolin-stimulated Isc following VX-445: failed to inhibit additional current
[3]
  effect on the bumetanide-insensitive current: failed to decrease
WT CFTR HBEs; TRAM-34 5 µM, DCEBIO 100 µM, no VX-445
  effect on DCEBIO-stimulated Isc: inhibits the DCEBIO-stimulated Isc response
WT CFTR HBEs; TRAM-34 after DCEBIO and VX-445 10 µM
  effect on DCEBIO-stimulated Isc following VX-445: had little effect
[4]; -40 mV
  whole-cell current normalized to cell capacitance: 0.875 and 0.576
[4]; -60 mV
  whole-cell current normalized to cell capacitance: 0.344 and 0.305
[4]; -80 mV
  whole-cell current normalized to cell capacitance: 0.0478 and 0.0385
KCa3.1 [1]; TRAM-34 1 µM after VX-445 10 µM
  effect on current remaining after VX-445: inhibited the remainder of the current
KCa3.1 [5]
  effect on current remaining after VX-445: inhibited the remainder of the current

## CC(C)(CO)c1cc2cc(NC(=O)C3(c4ccc5c(c4)OC(F)(F)O5)CC3)c(F)cc2n1C[C@@H](O)CO [VX-661, tezacaftor]
[3]; VX-661 10 µM
  effect on forskolin-mediated Cl- secretion: had no effect
KCa3.1 [1]
  effect on KCa3.1 current: had no effect; also recorded: failed to inhibit
[2]
  effect on BKCa: had no effect

## CC(C)(O)[C@H]1O[C@H]2CC[C@@]3(C)[C@@](O)(CC[C@H]4Cc5c([nH]c6ccccc56)[C@@]43C)C2=CC1=O [paxilline]
[3]; Fig 2B, single filters, paxilline 10 µM after forskolin and VX-445
  Isc in the presence of paxilline: 12 and 11 and 15 and 20 and 21 and 19 and 14
[3]; paxilline 10 µM after forskolin and VX-445 10 µM
  effect on Isc subsequent to VX-445-induced decrease: had no effect

## Cc1ccc(NC(=O)C2(c3ccc4c(c3)OC(F)(F)O4)CC2)nc1-c1cccc(C(=O)O)c1 [VX-809]
KCa3.1 [1]
  effect on KCa3.1 current: failed to inhibit

## CC(=O)Nc1nnc(S(N)(=O)=O)s1 [acetazolamide]
[3]
  effect on the bumetanide-insensitive current: partially inhibited the remaining current

## CCCCNc1cc(C(=O)O)cc(S(N)(=O)=O)c1Oc1ccccc1 [bumetanide]
[3]; Fig 1F, single filters, after forskolin
  Isc in the presence of bumetanide: 21 and 18 and 15 and 17 and 14 and 19 and 23 and 20
